Experimental data taken from patent US8729059B2, “Paramyxovirus family inhibitors and methods of use thereof” (priority 2007, dated 2014).
pIC50: −log10 of the molar value.

Assays:
recombinant MV-Edm = assay: virus yield reduction assay, MV-Edm; format: cell-based, measles virus; conditions: 36 hours post-infection
Vero cells = assay: Trypan blue exclusion assay; conditions: 30 hours
MV-Anc [1] = assay: compound specificity assay (BSA, higher virus inoculum); format: cell-based, measles virus
Experimental: Bovine serum albumin (BSA) was added to some samples at a final concentration of 10 mg/ml.

[2] = tested on: canine distemper virus (CDV); format: cell-based; conditions: read-out: IC50 against CDV
[3] = tested on: human parainfluenzavirus type 2 (hPIV2); format: cell-based; conditions: read-out: IC50 against hPIV2
MV-Anc [4] = assay: compound stability under physiological conditions; format: physicochemical, measles virus; conditions: 15 μM, 37° C., pre-incubation for 24 hours
Experimental: To assess compound stability under physiological conditions, inhibitor compound 16677 was dissolved in growth medium (15 μM final concentration) and incubated at 37° C. and physiological pH for different time intervals (24 hours longest). Control samples contained equal amounts of DMSO and were likewise incubated for 24 hours. Subsequent to pre-incubation, MV was added to the compound aliquots and the mixtures transferred to 4×10^5 target cells seeded in a 6-well plate format (resulting MOI=0.1 pfu/cell). Thirty-six hours post-infection, cell-associated viral particles were harvested and virus titers determined by TCID50 titration.

MV [5] = assay: dissociation assay (dialysis); format: cell-based, measles virus; conditions: 15 μM, dialysis against PBS
Experimental: Viral particles (4×10^4 pfu, equaling an MOI=[…]) were mixed with compound 16677 (final concentration 15 μM) dissolved in phosphate buffered saline (PBS). After 10-minute incubation at 37° C. to allow compound binding, samples were either subjected to dialysis against PBS (molecular weight cut off=75 kDa, dilution factor 100,000×, 4° C., 10 hours) or incubated for 10 hours at 4° C. without dialysis. Control samples were treated with DMSO-only and subjected to dialysis. All samples were then transferred to 4×10^5 target cells seeded in a 6-well plate, cell-associated viral particles harvested 36 hours post-infection and viral titers determined by TCID50 titration.

[6] = tested on: panel of primary MV isolates; assay: virus yield dose-response, primary MV isolates; format: cell-based, measles virus
Experimental: For assessment of clinical MV isolates, compound was added in 3-fold dilutions (37.5 μM highest). Thirty-six hours post-infection, cell-associated viral particles were harvested and titered as described above.

MV [7] = assay: virus entry assay (pH 3.0 wash); format: cell-based, measles virus; conditions: 10 μM, compared to DMSO-treated cells
Experimental: For entry experiments, viral particles (MOI=0.5) were absorbed to 4×10^5 target cells in a 6-well plate format at 4° C. in the presence of 10 μM compound 16677 or equal amounts of DMSO for one hour. Cells were then shifted to 37° C. for 30 minutes, followed by inactivation of adsorbed, extracellular virions by a 2-minute acid treatment (40 mM sodium citrate, 10 mM KCl, 135 mM NaCl, pH 3.0) at 25° C. as previously described (37,39,49). Subsequent incubation for 30 hours at 37° C. in the presence or absence of 10 μM compound 16677 as specified was followed by determination of cell-associated virus titers by TCID50 titration.

MV [8] = assay: time of compound addition assay; format: cell-based, measles virus; conditions: 15 μM added 12 hours post-infection, harvest 20 hours post-infection
Experimental: Cells (3×10^5/well in a 12-well plate format) were infected with MV at an MOI=[…] and compounds compound 16677 (final concentration 15 μM) or AS-48 (final concentration 75 μM) added at the indicated time points. Control cells were infected in the presence of equal amounts of DMSO. Twenty hours post-infection, when virus-induced cytopathicity exceeded 90%, cell-associated viral particles were harvested and subjected to TCID50 titration.

MV polymerase complex = MV polymerase complex (Measles virus, UniProt P12576); format: cell-based
Nipah virus polymerase = Nipah virus polymerase (Nipah virus, UniProt Q997F0); format: cell-based
T7 polymerase = T7 polymerase (Escherichia phage T7, UniProt P00573); assay: in vitro protein transcription/translation; format: biochemical; conditions: 50 μM compound vs untreated
Experimental: Rabbit reticulocyte lysates were mixed with 0.5 μg plasmid DNA encoding MV F under the control of the T7 promoter (pT7-MV F), 20 μCi [^35S]-methionine, and compound 16677 (final concentration 50 μM) or equal volumes of DMSO. Samples were incubated at 30° C. for 90 min, mixed with urea buffer (200 mM Tris, pH 6.8; 8 M urea; 5% SDS; 0.1 mM EDTA; 0.03% bromphenolblue; 1.5% dithiothreitol), and fractionated on 12% polyacrylamide gels. Dried gels were exposed to Kodak XAR films.

MV polymerase complex, sequence (P03422 whole entry): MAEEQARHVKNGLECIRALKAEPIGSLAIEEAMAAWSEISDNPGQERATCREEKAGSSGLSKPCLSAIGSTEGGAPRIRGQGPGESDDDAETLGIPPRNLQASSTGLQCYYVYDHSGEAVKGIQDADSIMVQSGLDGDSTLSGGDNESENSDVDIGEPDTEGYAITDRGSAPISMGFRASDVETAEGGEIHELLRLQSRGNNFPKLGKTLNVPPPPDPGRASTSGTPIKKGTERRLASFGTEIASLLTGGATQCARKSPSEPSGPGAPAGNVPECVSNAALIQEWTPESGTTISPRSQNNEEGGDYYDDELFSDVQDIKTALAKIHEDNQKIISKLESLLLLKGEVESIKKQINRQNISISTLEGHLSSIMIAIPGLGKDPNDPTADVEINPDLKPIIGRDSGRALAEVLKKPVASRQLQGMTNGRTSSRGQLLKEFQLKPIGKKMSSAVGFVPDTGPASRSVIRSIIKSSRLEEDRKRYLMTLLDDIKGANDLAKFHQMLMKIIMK
MV polymerase complex, sequence (P12576 whole entry): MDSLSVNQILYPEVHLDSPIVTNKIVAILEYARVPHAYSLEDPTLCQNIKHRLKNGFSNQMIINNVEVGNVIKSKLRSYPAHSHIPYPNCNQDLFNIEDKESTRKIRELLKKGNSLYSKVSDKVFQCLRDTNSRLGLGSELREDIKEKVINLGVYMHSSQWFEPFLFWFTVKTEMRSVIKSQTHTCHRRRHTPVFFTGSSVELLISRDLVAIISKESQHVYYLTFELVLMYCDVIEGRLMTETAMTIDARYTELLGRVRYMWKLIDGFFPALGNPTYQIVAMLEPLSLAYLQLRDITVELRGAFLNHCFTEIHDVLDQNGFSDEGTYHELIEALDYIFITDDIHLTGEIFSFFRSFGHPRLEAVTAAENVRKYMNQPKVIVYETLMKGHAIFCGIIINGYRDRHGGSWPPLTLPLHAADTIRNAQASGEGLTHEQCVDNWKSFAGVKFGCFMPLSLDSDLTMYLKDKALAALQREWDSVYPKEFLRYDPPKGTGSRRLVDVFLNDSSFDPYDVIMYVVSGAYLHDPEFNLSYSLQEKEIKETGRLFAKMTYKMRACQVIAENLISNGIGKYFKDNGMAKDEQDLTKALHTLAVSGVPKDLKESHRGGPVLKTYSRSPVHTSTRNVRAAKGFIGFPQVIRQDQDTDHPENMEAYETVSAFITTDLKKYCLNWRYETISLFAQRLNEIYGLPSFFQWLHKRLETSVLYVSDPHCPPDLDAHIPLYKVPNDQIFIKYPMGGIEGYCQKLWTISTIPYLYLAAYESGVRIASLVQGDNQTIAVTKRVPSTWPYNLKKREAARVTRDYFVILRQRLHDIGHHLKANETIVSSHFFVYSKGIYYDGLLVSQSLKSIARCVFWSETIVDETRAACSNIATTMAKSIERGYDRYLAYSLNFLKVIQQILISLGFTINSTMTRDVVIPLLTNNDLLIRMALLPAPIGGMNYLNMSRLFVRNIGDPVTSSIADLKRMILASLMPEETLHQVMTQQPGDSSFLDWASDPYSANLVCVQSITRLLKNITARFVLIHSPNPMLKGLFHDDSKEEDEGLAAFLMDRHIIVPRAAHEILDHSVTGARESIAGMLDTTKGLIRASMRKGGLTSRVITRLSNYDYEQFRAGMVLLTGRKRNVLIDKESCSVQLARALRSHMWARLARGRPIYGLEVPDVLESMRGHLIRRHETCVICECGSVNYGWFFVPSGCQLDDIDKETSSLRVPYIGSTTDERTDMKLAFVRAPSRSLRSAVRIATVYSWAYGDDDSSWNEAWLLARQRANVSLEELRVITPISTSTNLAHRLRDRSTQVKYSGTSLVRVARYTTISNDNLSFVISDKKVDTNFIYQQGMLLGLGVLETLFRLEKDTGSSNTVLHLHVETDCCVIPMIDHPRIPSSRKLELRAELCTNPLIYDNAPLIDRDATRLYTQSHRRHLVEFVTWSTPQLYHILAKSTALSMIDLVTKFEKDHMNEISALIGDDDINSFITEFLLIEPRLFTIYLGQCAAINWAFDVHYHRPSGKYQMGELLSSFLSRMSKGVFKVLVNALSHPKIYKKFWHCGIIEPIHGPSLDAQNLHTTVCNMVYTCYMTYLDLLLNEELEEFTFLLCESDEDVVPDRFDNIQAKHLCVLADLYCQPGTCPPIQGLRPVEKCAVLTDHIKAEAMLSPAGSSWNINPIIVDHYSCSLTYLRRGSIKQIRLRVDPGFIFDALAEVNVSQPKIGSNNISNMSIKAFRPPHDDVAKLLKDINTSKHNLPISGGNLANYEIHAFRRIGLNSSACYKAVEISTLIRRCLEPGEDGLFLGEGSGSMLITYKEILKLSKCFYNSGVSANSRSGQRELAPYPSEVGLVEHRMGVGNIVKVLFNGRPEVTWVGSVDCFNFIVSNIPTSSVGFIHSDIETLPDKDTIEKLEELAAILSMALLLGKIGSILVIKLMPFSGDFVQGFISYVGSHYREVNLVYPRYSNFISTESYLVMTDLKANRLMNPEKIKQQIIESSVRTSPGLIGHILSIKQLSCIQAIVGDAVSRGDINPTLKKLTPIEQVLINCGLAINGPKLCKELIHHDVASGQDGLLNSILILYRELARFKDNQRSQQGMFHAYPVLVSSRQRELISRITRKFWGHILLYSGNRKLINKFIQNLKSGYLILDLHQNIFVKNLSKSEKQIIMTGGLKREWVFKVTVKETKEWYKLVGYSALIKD
Nipah virus polymerase, sequence (Q997F0 whole entry, looked up): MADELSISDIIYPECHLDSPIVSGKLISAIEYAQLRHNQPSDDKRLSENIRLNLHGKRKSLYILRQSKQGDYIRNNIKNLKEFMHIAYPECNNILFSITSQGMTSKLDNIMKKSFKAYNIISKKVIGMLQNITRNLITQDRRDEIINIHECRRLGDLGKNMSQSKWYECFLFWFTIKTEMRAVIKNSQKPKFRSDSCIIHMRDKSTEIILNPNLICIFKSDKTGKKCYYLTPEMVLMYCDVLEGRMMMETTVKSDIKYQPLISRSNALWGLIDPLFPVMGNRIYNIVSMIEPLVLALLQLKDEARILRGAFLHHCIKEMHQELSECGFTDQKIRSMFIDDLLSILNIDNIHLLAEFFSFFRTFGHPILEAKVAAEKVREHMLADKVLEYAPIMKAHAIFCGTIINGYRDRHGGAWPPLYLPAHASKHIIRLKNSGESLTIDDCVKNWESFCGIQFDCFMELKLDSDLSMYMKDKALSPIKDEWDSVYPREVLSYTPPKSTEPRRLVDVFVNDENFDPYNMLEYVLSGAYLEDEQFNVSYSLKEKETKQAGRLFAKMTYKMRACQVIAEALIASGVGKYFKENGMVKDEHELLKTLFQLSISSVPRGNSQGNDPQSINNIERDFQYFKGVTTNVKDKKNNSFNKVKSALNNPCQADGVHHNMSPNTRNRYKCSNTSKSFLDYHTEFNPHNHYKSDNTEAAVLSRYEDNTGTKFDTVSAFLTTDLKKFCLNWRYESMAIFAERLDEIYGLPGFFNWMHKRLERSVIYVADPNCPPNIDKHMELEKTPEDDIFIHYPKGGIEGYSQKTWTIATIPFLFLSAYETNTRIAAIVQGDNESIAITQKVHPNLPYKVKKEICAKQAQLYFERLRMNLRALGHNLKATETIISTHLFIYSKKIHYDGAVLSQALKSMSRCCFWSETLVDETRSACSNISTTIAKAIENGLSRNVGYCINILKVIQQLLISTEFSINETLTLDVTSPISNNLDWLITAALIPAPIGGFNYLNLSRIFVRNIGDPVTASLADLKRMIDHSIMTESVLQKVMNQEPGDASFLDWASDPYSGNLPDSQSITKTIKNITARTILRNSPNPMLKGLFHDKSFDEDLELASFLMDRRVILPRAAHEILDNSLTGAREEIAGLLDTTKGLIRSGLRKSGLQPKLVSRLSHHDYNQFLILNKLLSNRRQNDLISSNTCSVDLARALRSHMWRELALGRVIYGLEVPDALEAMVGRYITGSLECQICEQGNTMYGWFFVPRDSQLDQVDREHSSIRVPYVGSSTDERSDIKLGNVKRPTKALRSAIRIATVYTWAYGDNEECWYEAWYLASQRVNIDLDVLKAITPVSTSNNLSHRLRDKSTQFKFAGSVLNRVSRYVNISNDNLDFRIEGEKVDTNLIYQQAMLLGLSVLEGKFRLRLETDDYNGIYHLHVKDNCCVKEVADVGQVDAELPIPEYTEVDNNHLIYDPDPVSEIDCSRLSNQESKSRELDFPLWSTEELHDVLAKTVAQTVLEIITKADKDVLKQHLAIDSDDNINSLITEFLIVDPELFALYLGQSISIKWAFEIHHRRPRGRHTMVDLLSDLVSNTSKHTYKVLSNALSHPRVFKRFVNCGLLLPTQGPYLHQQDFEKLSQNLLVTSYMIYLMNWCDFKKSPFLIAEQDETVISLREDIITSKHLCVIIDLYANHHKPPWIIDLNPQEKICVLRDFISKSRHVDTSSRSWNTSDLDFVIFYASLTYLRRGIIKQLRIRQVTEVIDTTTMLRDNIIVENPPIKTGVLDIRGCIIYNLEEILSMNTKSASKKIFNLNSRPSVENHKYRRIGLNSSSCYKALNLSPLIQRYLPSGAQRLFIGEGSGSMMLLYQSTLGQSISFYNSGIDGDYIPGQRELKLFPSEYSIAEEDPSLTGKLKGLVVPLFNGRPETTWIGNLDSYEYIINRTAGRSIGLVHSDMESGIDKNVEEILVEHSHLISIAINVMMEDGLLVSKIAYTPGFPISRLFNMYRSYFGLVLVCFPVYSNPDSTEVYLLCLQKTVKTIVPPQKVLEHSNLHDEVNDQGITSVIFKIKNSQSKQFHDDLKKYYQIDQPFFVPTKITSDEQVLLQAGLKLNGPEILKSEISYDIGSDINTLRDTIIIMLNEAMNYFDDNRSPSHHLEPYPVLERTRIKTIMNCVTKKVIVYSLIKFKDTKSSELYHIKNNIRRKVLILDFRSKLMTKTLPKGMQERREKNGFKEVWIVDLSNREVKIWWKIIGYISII

With Cc1ccc2[nH]c(=O)c(CNS(=O)(=O)c3ccccc3)c(-c3ccccc3)c2c1 [compound 68290] the pIC50 (recombinant MV-Edm) was 5.11, the CC50 (cells) was over 150 µM and the “concentration giving 50% reduction of the number of live cells” value (Vero cells; trypan-blue exclusion) was “approximately 75 μM”.

With Cn1nc(C(F)(F)F)cc1C(=O)Nc1ccc(S(=O)(=O)N2CCCC2)cc1 [compound 16677, 1-methyl-3-(trifluoromethyl)-N-[4-(pyrrolidinylsulfonyl)-phenyl]-1H-pyrazole-5-carboxamide] the pIC50 (recombinant MV-Edm) was about 6.62, the “change of IC50 with 10 mg/ml BSA or five-fold higher virus inoculum” value (MV-Anc [1]) was “no significant differences were observed” and the pIC50 [2] was 4.55. For the same compound, the pIC50 [3] was under 4.12, the “antiviral activity after pre-incubation in cell culture medium” value (MV-Anc [4]) was “no loss in antiviral activity” and the “inhibitory activity after dialysis prior to infection (reversibility)” value (MV [5]) was “completely ablated by dialysis”. The “inhibition of MV-Ibd (genotype B3, resistant to MV entry inhibitors)” value [6] was “efficiently inhibited”, the “effect of pH 3.0 wash on virus yields after absorption in presence of compound” value (MV [7]) was “only slightly affected” and the “reduction in virus yields” value (MV [8]) was “approximately 99.9%”. The “CAT expression in MV minireplicon assay” value (MV polymerase complex) was “strong dose-dependent inhibition of CAT expression”, the “IC50 in minigenome assay relative to IC50 against MV isolates” value (MV polymerase complex) was “about 25 times” and the “effect on Nipah virus minireplicon” value (Nipah virus polymerase) was “no effect”. For the same compound, the “F protein produced in cell-free transcription/translation” value (T7 polymerase) was “Equal amounts of F protein were detected”, the CC50 (cells) was over 150 µM and the “number of live cells, of solvent-treated controls” value (Vero cells; compound concentration 500 μM) was “approximately 80%”.

Work on Cc1ccc2nsnc2c1S(=O)(=O)Nc1ccc(Cl)cc1 [compound 99920] yielded a pIC50 (recombinant MV-Edm) of 5.89 and a CC50 (cells) of 100 µM.

With O=C(NC(=O)N(c1ccc(Cl)cc1)S(=O)(=O)c1ccccc1)Nc1ccccc1Cl [compound 15960] the pIC50 (recombinant MV-Edm) was 5.47 and the CC50 (cells) was 120 µM.
